Measured values reported in PMC5342071, “A first generation inhibitor of human Greatwall kinase, enabled by structural and functional characterisation of a minimal kinase domain construct” (Oncotarget, 2016).

Molecular target: T1, hGWL-KinDom (Homo sapiens, UniProt Q96GX5)
T1 construct: that encoded amino acids (aa) 1-194 + ‘RTFC’ + 740-879 of hGWL; GST (rhinovirus 3C-protease cleavable) (N, cleaved yes); made in house; host or cells: E. coli Rosetta2(DE3)
Experiment: Thermal shift assay
Type: binding
Details: read-out: temperature midpoint shift (ΔTm)
Description: Assays were performed using a modified version of the protocol previously described in [41].
The protein crystallised in spacegroup P212121, with two molecules comprising the asymmetric unit. For one molecule (chain A), amino acids 30-72, 86-177 and 740-854 are readily discernible in electron density maps, whilst for the other (chain B) amino acids 30-72, 86-177 and 740-854 are readily discernible.
For thermal denaturation, samples containing protein at 1.5 µM and 5 x SYPRO Orange (diluted from a 5000 x stock supplied in DMSO; Sigma-Aldrich, Gillingham, UK) were prepared in sample buffer: 20 mM HEPES.NaOH pH 7.5, 300 mM NaCl, 0.5 mM TCEP. Denaturation curves were monitored in 96-well PCR plates using a Roche LightCycler 480 II, with 465 and 580 nm filters for excitation and emission wavelengths, respectively. The program was as follows: 1 min at 20°C, followed by a continuous increment of 0.03°C/s to a final temperature of 85°C. Temperature midpoints (Tm) for each folded to unfolded transition were determined by non-linear regression fitting of a modified Boltzmann model to normalized data in Prism 6.0 (version 6.0h, GraphPad Software, La Jolla, CA USA). […]
After stopping the above non-radioactive kinase assay with 1 volume of Kinase-Glo Max reagent the mixture was allowed to incubate for a further 15 min. […] As this assay measures ATP, activity or ATP turnover was measured as the -ΔRLU. […]

T1 sequence (Q96GX5 with tags, fused parts or gaps limits assumed): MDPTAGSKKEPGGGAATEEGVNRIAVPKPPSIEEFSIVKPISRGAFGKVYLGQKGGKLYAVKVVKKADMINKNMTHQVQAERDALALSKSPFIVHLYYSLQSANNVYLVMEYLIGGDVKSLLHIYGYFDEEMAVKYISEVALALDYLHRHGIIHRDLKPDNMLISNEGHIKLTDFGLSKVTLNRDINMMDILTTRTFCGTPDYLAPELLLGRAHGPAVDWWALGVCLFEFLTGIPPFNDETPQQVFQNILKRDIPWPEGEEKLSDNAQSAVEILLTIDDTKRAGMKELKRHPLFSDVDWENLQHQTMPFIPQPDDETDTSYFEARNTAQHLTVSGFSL

**Q.** `CN[C@@H]1C[C@H]2O[C@@](C)([C@@H]1OC)n1c3ccccc3c3c4c(c5c6ccccc6n2c5c31)C(=O)NC4` [STU, staurosporine] was tested. Which ΔTm at 10 µM did it give?
**A.** 8.2 °C
